Laboratory results: paper PMC13198257, “An aerosolized dual-action autotaxin inhibitor-PPARγ agonist for the treatment of pulmonary fibrosis” (Cell Reports Medicine, 2026)

System: lung gene expression
Assay: RNA sequencing of lung tissue (BLM/EL244 vs BLM)
Type: in vivo, mouse
Settings: lung tissue, BLM/EL244 vs BLM
Experimental: RNA quality was assessed using an Agilent TapeStation 4150 with the High Sensitivity […] ScreenTape (Agilent), according to the manufacturer’s protocols. For library preparation, the QuantSeq 3’mRNA-Seq Library Prep Kit (Lexogen) was used according to manufacturer’s instructions. Briefly, 500 ng of RNA from each sample was used for first-strand synthesis, followed by RNA template removal, and second-strand synthesis initiated by random primers. In-line barcodes were introduced at this step, and this was followed by magnetic bead-based purification. The resulting libraries were amplified for 15 cycles and re-purified, with quantity and quality assessed on a Qubit 4 Fluorometer with the Invitrogen Qubit dsDNA HS Assay and an Agilent Tapestation 4150 with the High Sensitivity D1000 assay kit, respectively. The quantified libraries were pooled equimolarly; 50ng of total library mix was used for Adapter Conversion PCR Amplification using the Universal Library Conversion Kit (App-A), Version: V1.0 (MGI Tech Co., Ltd.), according to the manufacturer’s instructions.
The quantity and quality of the purified adapter conversion PCR (AC-PCR) product were evaluated on a Qubit 4 Fluorometer with the Invitrogen Qubit dsDNA HS Assay and on an Agilent Tapestation 4150 with the High Sensitivity D1000 assay kit, respectively. This was followed by DNA denaturation, Single-Strand Circularisation, Enzymatic Digestion, Enzymatic Digestion Product Cleanup and Quality Control steps on 1 pmol of AC-PCR product, according to the Universal Library Conversion Kit (App-A) User Manual (Version: A3).
Finally, 60 fmol of ssCirDNA were used for DNB preparation and sequencing on a DNBSEQ-G400 platform at the BSRC Alexander Fleming Genomics Facility, using a G400 App-A FCS SE100 High-throughput Sequencing Set (MGI Tech Co., Ltd.), according to the manufacturer’s instructions.
Alignment of the FASTQ files was performed against the mouse genome build mm10 using a custom Bash script.[143] Read counting on the 3′ UTRs and differential expression analysis were conducted using the metaseqR2 bioconductor package.[144] Genes corresponding to the following biotypes were excluded: polymorphic_pseudogene, processed_transcript, pseudogene, IG_V_pseudogene, misc_RNA, IG_C_gene, IG_J_gene, IG_D_gene, IG_LV_gene, TR_V_gene, TR_V_pseudogene, TEC, and processed_pseudogene. Gene counts were normalized with DESEQ[145] through metaseqR2. Genes with more than 10 counts in at least 50% of the samples were kept for further processing. For differential expression analysis, the PANDORA algorithm[146] was used to estimate a meta p-value integrating the results from the DESEQ, DESEQ2,[147] edgeR,[148] limma,[149] NBPSeq,[150] and NOISeq[151] algorithms. All additional parameters were set to default values.
Pathway enrichment analysis was performed for the Gene Ontology Biological process (BP) and Molecular Function (MF) terms through GeneCodis 4.[152] The volcano plots, scatterplots, Venn diagrams, and dot plots were generated using the ggplot2 Bioconductor package.

## O=C1NC(=O)C(Cc2ccc(OCCC3CCN(C(=O)OCc4cc(Cl)cc(Cl)c4)CC3)cc2)S1 (stereo not shown) [EL244, 3,5-dichlorobenzyl 4-(2-(4-((2,4-dioxothiazolidin-5-yl)methyl)phenoxy)ethyl)piperidine-1-carboxylate]
  nFC Col15a1: 0.47
  nFC Col16a1: 0.53
  nFC Cotl1: 0.54
  nFC Csf2rb2: 0.50
  nFC Cstb: 0.52
  nFC Ctsk: 0.51
  nFC Ctss: 0.53
  nFC Cx3cr1: 0.44
  nFC Cyp7b1: 0.38
  nFC Dbn1: 0.54
  nFC Dclk1: 0.55
  nFC Diaph3: 0.46
  nFC Dio2: 0.38
  nFC Dok2: 0.39
  nFC Dut: 0.54
  nFC Egr2: 0.54
  nFC Epha4: 0.54
  nFC F10: 0.46
  nFC Fam20c: 0.48
  nFC Fbn1: 0.49
  nFC Fcgr1: 0.41
  nFC Fcgr2b: 0.47
  nFC Fcrls: 0.39
  nFC Fen1: 0.50
  nFC Fgf13: 0.38
  nFC Fkbp10: 0.42
  nFC Fndc1: 0.46
  nFC Fscn1: 0.43
  nFC Fst: 0.48
  nFC Fstl1: 0.43
  nFC Gas2l3: 0.40
  nFC Gm13889: 0.55
  nFC Gm25380: 0.50
  nFC Gm42674: 0.44
  nFC Gm49339: 0.52
  nFC Hells: 0.41
  nFC Il18bp: 0.52
  nFC Ildr2: 0.40
  nFC Itm2a: 0.42
  nFC Kcnn4: 0.41
  nFC Kdelr3: 0.42
  nFC Kif23: 0.44
  nFC Klhdc8a: 0.49
  nFC Kntc1: 0.38
  nFC Lair1: 0.53
  nFC Lat2: 0.47
  nFC Lcn2: 0.52
  nFC Lgals1: 0.46
  nFC Lgmn: 0.47
  nFC Lilrb4a: 0.54
  nFC Lmnb1: 0.53
  nFC Loxl2: 0.53
  nFC Lrg1: 0.54
  nFC Lum: 0.40
  nFC Mad2l1: 0.51
  nFC Mafb: 0.53
  nFC Mark1: 0.42
  nFC Mcm5: 0.40
  nFC Mdk: 0.40
  nFC Mfap5: 0.46
  nFC Mfrp: 0.55
  nFC Mgp: 0.49
  nFC Mir692-1: 0.44
  nFC Mmp14: 0.40
  nFC Ms4a6c: 0.53
  nFC Ms4a6d: 0.53
  nFC Ncapd2: 0.41
  nFC Ndnf: 0.55
  nFC Nnat: 0.40
  nFC Nrcam: 0.42
  nFC Nrep: 0.42
  nFC P2ry6: 0.52
  nFC Paox: 0.53
  nFC Pcdh7: 0.49
  nFC Pdlim4: 0.42
  nFC Plk4: 0.40
  nFC Polh: 0.55
  nFC Ppic: 0.47
  nFC Prdx4: 0.52
  nFC Psat1: 0.51
  nFC Psrc1: 0.42
  nFC Pth1r: 0.38
  nFC Racgap1: 0.43
  nFC Rcc1: 0.53
  nFC Rgs4: 0.42
  nFC Rgs5: 0.50
  nFC Rhof: 0.49
  nFC S100a4: 0.42
  nFC S100a14: 0.41
  nFC Scn3b: 0.53
  nFC Serpina3g: 0.40
  nFC Serpina3n: 0.43
  nFC Serpine1: 0.51
  nFC Serpine2: 0.55
  nFC Serpinh1: 0.55
  nFC Sertad4: 0.39
  nFC Sfn: 0.44
  nFC Sh2b2: 0.43
  nFC Slamf8: 0.42
  nFC Smc2: 0.51
  nFC Snai1: 0.51
  nFC Spc24: 0.46
  nFC St8sia6: 0.49
  nFC Tacc3: 0.42
  nFC Tiam1: 0.49
  nFC Tlr2: 0.48
  nFC Tnfaip8l1: 0.47
  nFC Tnfrsf11a: 0.46
  nFC Tns4: 0.44
  nFC Traf4: 0.47
  nFC Tubb2b: 0.44
  nFC Tyms: 0.49
  nFC Ulbp1: 0.48
  nFC Vcan: 0.43
  nFC Wfdc17: 0.41
